# Tested on: HCV 1b genotype
# Experiment: HCV Replicon assay
# Format: cell-based
# Settings: HCV 1b genotype replicon; read-out: 1b (μM) EC50 (Effective 50% inhibitory concentration)
# Protocol: An HCV Replicon assay was utilized in the present disclosure, and was prepared, conducted and validated as described in commonly owned PCT/US2006/022197 and in O'Boyle et. al. Antimicrob Agents Chemother. 2005 Apr; 49(4):1346-53. Assay methods incorporating luciferase reporters have also been used as described (Apath.com).
# HCV-neo replicon cells and replicon cells containing resistance substitutions in the NS5A region were used to test the currently described family of compounds.
row,SMILES,EC50
1,"COC(=O)NC(C(=O)N1[C@@H]2C[C@@H]2C[C@H]1c1nc(-c2ccc(-c3ccc(-c4c[nH]c([C@@H]5C[C@H]6C[C@H]6N5C(=O)C(NC(=O)OC)[C@H]5C[C@@H]6[C@H](C5)C6(F)F)n4)cc3)cc2)c[nH]1)[C@H]1C[C@@H]2[C@H](C1)C2(F)F (stereo partly drawn) [QC2.3, dimethyl (4,4′-biphenyldiylbis(1H-imidazole-4,2-diyl(1R,3S,5R)-2-azabicyclo[3.1.0]hexane-3,2-diyl(1-((1R,3r,5S)-6,6-difluorobicyclo[3.1.0]hex-3-yl)-2-oxo-2,1-ethanediyl)))biscarbamate]",1.08 nM

# Same assay, conditions: HCV 1b genotype replicon; read-out: Range (EC50 ranges against HCV 1b)
row,SMILES,EC50
1,"COC(=O)NC(C(=O)N1[C@@H](C)CC[C@H]1c1ncc(-c2ccc(-c3ccc(-c4cnc([C@@H]5CC[C@H](C)N5C(=O)C(NC(=O)OC)C5CCOC6(CCC6)C5)[nH]4)cc3)cc2)[nH]1)C1CCOC2(CCC2)C1 (single isomer, unassigned) [Example 2.1]",0.9 to 140 nM
2,"COC(=O)NC(C(=O)N1[C@@H](C)CC[C@H]1c1ncc(-c2ccc(-c3ccc(-c4cnc([C@@H]5CC[C@H](C)N5C(=O)C(NC(=O)OC)C5CCOC6(CCC6)C5)[nH]4)cc3)cc2)[nH]1)C1CCOC2(CCC2)C1 (single isomer, unassigned) [Example 2.2]",0.9 to 140 nM
3,"COC(=O)NC(C(=O)N1[C@@H](C)CC[C@H]1c1ncc(-c2ccc(-c3ccc(-c4cnc([C@@H]5CC[C@H](C)N5C(=O)C(NC(=O)OC)C5CCOC6(CCCC6)C5)[nH]4)cc3)cc2)[nH]1)C1CCOC2(CCCC2)C1 (single isomer, unassigned) [Example 3.1]",0.9 to 140 nM
4,"COC(=O)NC(C(=O)N1[C@@H](C)CC[C@H]1c1ncc(-c2ccc(-c3ccc(-c4cnc([C@@H]5CC[C@H](C)N5C(=O)C(NC(=O)OC)C5CCOC6(CCCC6)C5)[nH]4)cc3)cc2)[nH]1)C1CCOC2(CCCC2)C1 (single isomer, unassigned) [Example 3.2]",0.9 to 140 nM
5,COC(=O)NC(C(=O)N1[C@@H](C)CC[C@H]1c1nc(-c2ccc(-c3ccc(-c4c[nH]c([C@@H]5CC[C@H](C)N5C(=O)C(NC(=O)OC)C5CCC6(CC6)OC5)n4)cc3)cc2)c[nH]1)C1CCC2(CC2)OC1 (some centres unmarked) [Example 1.2],0.00501 to 0.1 nM
6,"COC(=O)NC(C(=O)N1[C@@H]2C[C@@H]2C[C@H]1c1nc(-c2ccc(-c3ccc(-c4c[nH]c([C@@H]5C[C@H]6C[C@H]6N5C(=O)C(NC(=O)OC)[C@H]5C[C@@H]6[C@H](C5)C6(F)F)n4)cc3)cc2)c[nH]1)[C@H]1C[C@@H]2[C@H](C1)C2(F)F (stereo partly drawn) [QC2.2, dimethyl (4,4′-biphenyldiylbis(1H-imidazole-4,2-diyl(1R,3S,5R)-2-azabicyclo[3.1.0]hexane-3,2-diyl(1-((1R,3r,5S)-6,6-difluorobicyclo[3.1.0]hex-3-yl)-2-oxo-2,1-ethanediyl)))biscarbamate]",0.00501 to 0.1 nM
7,"COC(=O)NC(C(=O)N1[C@@H]2C[C@@H]2C[C@H]1c1nc(-c2ccc(-c3ccc(-c4c[nH]c([C@@H]5C[C@H]6C[C@H]6N5C(=O)C(NC(=O)OC)[C@H]5C[C@@H]6[C@H](C5)C6(F)F)n4)cc3)cc2)c[nH]1)[C@H]1C[C@@H]2[C@H](C1)C2(F)F (stereo partly drawn) [QC2.3, dimethyl (4,4′-biphenyldiylbis(1H-imidazole-4,2-diyl(1R,3S,5R)-2-azabicyclo[3.1.0]hexane-3,2-diyl(1-((1R,3r,5S)-6,6-difluorobicyclo[3.1.0]hex-3-yl)-2-oxo-2,1-ethanediyl)))biscarbamate]",0.9 to 140 nM
8,"COC(=O)NC(C(=O)N1[C@@H]2C[C@@H]2C[C@H]1c1nc(-c2ccc(-c3ccc(-c4c[nH]c([C@@H]5C[C@H]6C[C@H]6N5C(=O)C(NC(=O)OC)[C@@H]5C[C@@H]6C[C@@H]6C5)n4)cc3)cc2)c[nH]1)[C@@H]1C[C@@H]2C[C@@H]2C1 (stereo partly drawn) [QC3.2, dimethyl (4,4′-biphenyldiylbis(1H-imidazole-4,2-diyl(1R,3S,5R)-2-azabicyclo[3.1.0]hexane-3,2-diyl(1-((1R,3r,5S)-bicyclo[3.1.0]hex-3-yl)-2-oxo-2,1-ethanediyl)))biscarbamate]",0.00501 to 0.1 nM
9,"COC(=O)NC(C(=O)N1[C@@H]2C[C@@H]2C[C@H]1c1nc(-c2ccc(-c3ccc(-c4c[nH]c([C@@H]5C[C@H]6C[C@H]6N5C(=O)C(NC(=O)OC)[C@@H]5C[C@@H]6C[C@@H]6C5)n4)cc3)cc2)c[nH]1)[C@@H]1C[C@@H]2C[C@@H]2C1 (stereo partly drawn) [QC3.3, dimethyl (4,4′-biphenyldiylbis(1H-imidazole-4,2-diyl(1R,3S,5R)-2-azabicyclo[3.1.0]hexane-3,2-diyl(1-((1R,3r,5S)-bicyclo[3.1.0]hex-3-yl)-2-oxo-2,1-ethanediyl)))biscarbamate]",0.1 to 0.9 nM
10,"COC(=O)N[C@@H](C(=O)N1C2C[C@@H]2C[C@H]1c1nc(-c2ccc(-c3ccc(-c4c[nH]c([C@@H]5C[C@H]6CC6N5C(=O)[C@H](NC(=O)OC)C5[C@H]6COC[C@@H]56)n4)cc3)cc2)c[nH]1)C1[C@H]2COC[C@@H]12 (stereo partly drawn) [QC4.1, dimethyl (4,4′-biphenyldiylbis(1H-imidazole-4,2-diyl(1R,3S,5R)-2-azabicyclo[3.1.0]hexane-3,2-diyl(1-((1R,5S,6s)-3-oxabicyclo[3.1.0]hex-6-yl)-2-oxo-2,1-ethanediyl)))biscarbamate]",0.00501 to 0.1 nM
11,"COC(=O)N[C@@H](C(=O)N1C2C[C@@H]2C[C@H]1c1nc(-c2ccc(-c3ccc(-c4c[nH]c([C@@H]5C[C@H]6CC6N5C(=O)[C@H](NC(=O)OC)C5[C@H]6COC[C@@H]56)n4)cc3)cc2)c[nH]1)C1[C@H]2COC[C@@H]12 (stereo partly drawn) [QC4.2, dimethyl (4,4′-biphenyldiylbis(1H-imidazole-4,2-diyl(1R,3S,5R)-2-azabicyclo[3.1.0]hexane-3,2-diyl(1-((1R,5S,6s)-3-oxabicyclo[3.1.0]hex-6-yl)-2-oxo-2,1-ethanediyl)))biscarbamate]",0.1 to 0.9 nM

# Same assay, conditions: Hepatitis C virus, HCV 1b genotype replicon; read-out: 1b (μM) EC50 (Effective 50% inhibitory concentration)
row,SMILES,EC50
1,"COC(=O)NC(C(=O)N1[C@@H]2C[C@@H]2C[C@H]1c1nc(-c2ccc(-c3ccc(-c4c[nH]c([C@@H]5C[C@H]6C[C@H]6N5C(=O)C(NC(=O)OC)[C@@H]5C[C@@H]6[C@H](C5)C6(F)F)n4)cc3)cc2)c[nH]1)[C@@H]1C[C@@H]2[C@H](C1)C2(F)F (single isomer, unassigned) [QC1.2]",0.0049 nM
2,"COC(=O)NC(C(=O)N1[C@@H]2C[C@@H]2C[C@H]1c1nc(-c2ccc(-c3ccc(-c4c[nH]c([C@@H]5C[C@H]6C[C@H]6N5C(=O)C(NC(=O)OC)[C@H]5C[C@@H]6C[C@@H]6C5)n4)cc3)cc2)c[nH]1)[C@H]1C[C@@H]2C[C@@H]2C1 (single isomer, unassigned) [QC5.3]",0.00555 nM

# Same assay, conditions: Hepatitis C virus, HCV 1b genotype replicon; read-out: Range (EC50 ranges against HCV 1b)
row,SMILES,EC50
1,"COC(=O)NC(C(=O)N1[C@@H]2C[C@@H]2C[C@H]1c1nc(-c2ccc(-c3ccc(-c4c[nH]c([C@@H]5C[C@H]6C[C@H]6N5C(=O)C(NC(=O)OC)[C@@H]5C[C@@H]6[C@H](C5)C6(F)F)n4)cc3)cc2)c[nH]1)[C@@H]1C[C@@H]2[C@H](C1)C2(F)F (single isomer, unassigned) [QC1.3]",0.1 to 0.9 nM
2,"COC(=O)NC(C(=O)N1[C@@H]2C[C@@H]2C[C@H]1c1nc(-c2ccc(-c3ccc(-c4c[nH]c([C@@H]5C[C@H]6C[C@H]6N5C(=O)C(NC(=O)OC)[C@H]5C[C@@H]6C[C@@H]6C5)n4)cc3)cc2)c[nH]1)[C@H]1C[C@@H]2C[C@@H]2C1 (single isomer, unassigned) [QC5.3]",0.00501 to 0.1 nM
3,COC(=O)NC(C(=O)N1[C@@H](C)CC[C@H]1c1nc(-c2ccc(-c3ccc(-c4c[nH]c([C@@H]5CC[C@H](C)N5C(=O)C(NC(=O)OC)C5CCC6(CC6)OC5)n4)cc3)cc2)c[nH]1)C1CCC2(CC2)OC1 (some centres unmarked) [Example 1.1],0.00501 to 0.1 nM
4,COC(=O)NC(C(=O)N1[C@@H](C)CC[C@H]1c1ncc(-c2ccc(-c3ccc(-c4cnc([C@@H]5CC[C@H](C)N5C(=O)C(NC(=O)OC)C5CC6(CC6)C5)[nH]4)cc3)cc2)[nH]1)C1CC2(CC2)C1 (some centres unmarked) [Example 5.2],0.9 to 140 nM
5,COC(=O)N[C@H](C(=O)C1[C@@H](CF)CC[C@H]1c1ncc(-c2ccc(-c3ccc(-c4cnc([C@@H]5CC[C@H](CF)N5C(=O)[C@@H](NC(=O)OC)[C@H]5CCOC6(CC6)C5)[nH]4)cc3)cc2)[nH]1)[C@H]1CCOC2(CC2)C1 (some centres unmarked) [Example 8],0.00501 to 0.1 nM
6,"COC(=O)NC(C(=O)N1CCC[C@H]1c1nc(-c2ccc(-c3c[nH]c([C@@H]4CCCN4C(=O)C(NC(=O)OC)C4CCOC5(CC5)C4)n3)cc2)c[nH]1)C1CCOC2(CC2)C1 (stereo partly drawn) [Example QC14, dimethyl (benzene-1,4-diylbis(1H-imidazole-4,2-diyl(2S)pyrrolidine-2,1-diyl(1-(4-oxaspiro[2.5]oct-7-yl)-2-oxoethane-2,1-diyl)))biscarbamate]",0.9 to 140 nM
